Experiments:
[1] = Cytotoxicity, cell viability by Resazurin assay; format: cell-based; conditions: human, JEG-3 human placental cells; naive JEG-3 cells, 24-well plates (8×10^4 cells/well), increasing amounts of inhibitor, viability read forty-height (48) hours later; Figure 3A; read-out: 50% cytotoxicity concentration (CC50)
Method: In a first experiment, the cytotoxicity of the UBA5 inhibitor DKM29-3 was determined. Naive JEG-3 human placental cells were seeded in 24-well plates (8×10^4 cells/well) and on the next day treated with increasing amounts of the UBA5 inhibitor DKM29-3.

ZIKV (PRVABC59 strain) = experiment: Zika virus replication in infected JEG-3 cells, plaque-forming unit assay (PFU) on VeroE6 cells; format: cell-based; conditions: wild-type JEG-3 cells, MOI 0.01, 16 µM or 32 µM added after virus absorption, supernatants analysed forty-height (48) hours later; n=4; Mann-Whitney test p-value < 0.05
Method: Then, the effect of UBA5-inhibitor DKM29-3 on Zika virus replication was studied. Wild-type JEG-3 cells were seeded as described above and infected with ZIKV (PRVABC59 strain) at an MOI (Multiplicity of Infection) of 0.01 for 1h at 37°C. After virus absorption the cells monolayers were washed with PBS (Phosphate Buffer Saline), and cell culture media containing 16 µM or 32 µM of DKM29-3 were added to the cells. Forty-height hours later virus-containing supernatants were analyzed by plaque-forming unit assay (PFU) on VeroE6 cells (n=4; Mann-Whitney test p-value < 0.05).

## COc1ccc(CNC(=O)CCl)cc1OC [DKM29-3, 2-chloro-N-(3,4-dimethoxybenzyl)acetamide]
[1]
  CC50 at 48 h: 80.2 µM
ZIKV (PRVABC59 strain)
  Zika virus replication: significantly reduced

Source: patent publication EP4556005A1, “COMPOUND FOR TREATING FLAVIVIRUS INFECTIONS” (Leibniz-Institut für Virologie, priority 2023, dated 2025)
